{
  "source": "patent US12421206B2",
  "about": "“Aryl-n-aryl derivatives for treating a RNA virus infection” (ABIVAX, priority 2018, dated 2025)",
  "data": [
    {"system": "RSV A2", "test": "RSV inhibition (cytopathic effect inhibition) using Viral ToxGlo assay in HEp-2 cells", "format": "cell-based", "conditions": "human respiratory syncytial virus, RSV A2, MOI 0.5, HEp-2 cells, 72 h p.i.", "protocol": "Protocol for Screening Antiviral Compounds for RSV Inhibition and Cytotoxicity Using Viral ToxGlo Assay\nHEp-2 cells were maintained in Eagle's minimum essential medium (EMEM) with Earle's BSS adjusted to contain 2 mM L-glutamine, 10% fetal bovine serum, 100 U/ml penicillin and 100 μg/ml streptomycin. For the purposes of the screening assay they were grown to 90% confluency, trypsinized and recovered. The trypsin was neutralised with cell culture media and cells were centrifuged at 150×g for 5 minutes before discarding the supernatant and resuspending cell pellet in assay media (EMEM with Earle's BSS adjusted to contain 2 mM L-glutamine, 2% fetal bovine serum and 100 U/ml penicillin and 100 μg/ml streptomycin). The cells were seeded into white clear-bottomed cell culture plates at a density of 1.5×10^4 cells/well in 50 μl and 4×10^3 cells/well in 25 μl for 96 well plates and 384 well plates respectively. For the media/background control column assay media only was added. Cell plates were placed in a humid chamber and incubated overnight at 37° C./5% CO2. After overnight incubation cells were checked for confluency and healthy appearance.\nTest articles were made up at 10× test concentration in a maximum DMSO concentration of 10% (final assay concentration maximal 1% DMSO) and added to the cell plates in volumes of 10 μl for 96 well plates and 5 μl for 384 well plates. For cell control and virus control wells the test article solvent only was added. Virus or assay media for cytotoxicity test wells and media/cell control wells was added immediately after test articles at an MOI of 0.5, 40 or 20 μl for 96 and 384 well plates respectively. Virus suspension was prepared by thawing RSV A2 frozen stocks and diluting to the required concentration of plaque forming units in assay media on ice.\nCell plates were further incubated inside a humid chamber for 72 h p.i at 37° C./5% CO2. After the incubation period cells were observed under the microscope to check for characteristic cytopathic effect in virus control wells and healthy cells in the cell control wells. After plates were adjusted to room temperature 20/40 μl Viral ToxGlo (Promega) was added to each well of the 384/96 well cell plates. Plates were incubated at room temperature, protected from light on a plate rocker for 20 minutes before measuring the luminescence on a spectrophotometer (Biotek Synergy HTX).\nRSV inhibition was calculated as percentage of cytopathic effect inhibition relative to the virus control and cytotoxicity as percentage of cell survival relative to cell control wells. This allowed EC50 values to be calculated for each test article where a virus inhibition or cytotoxic dose response was identified.", "units": {"EC50": "nM"}, "values": [
      {"smiles": "O=C(NCCC1CCCC1)c1cccc(Nc2ccc(OCc3ccccn3)cc2C2CC2)c1", "note": "[Compound 60, N-(2-cyclopentylethyl)-3-((2-cyclopropyl-4-(pyridin-2-ylmethoxy)phenyl)amino)benzamide]", "EC50": 67},
      {"smiles": "Cc1cc(OCc2ccccn2)ccc1Nc1cccc(C(=O)NCCCC(C)C)c1", "note": "[Compound 72, 3-((2-methyl-4-(pyridin-2-ylmethoxy)phenyl)amino)-N-(4-methylpentyl)benzamide]", "EC50": 158},
      {"smiles": "CCc1cc(OCc2ccccn2)ccc1Nc1cccc(C(=O)NCCC2CCCCC2)c1", "note": "[Compound 75, N-(2-(cyclohexyl)ethyl)-3-((2-ethyl-4-(pyridin-2-ylmethoxy)phenyl)amino)benzamide]", "EC50": 25},
      {"smiles": "O=C(NCCC1CCCCC1)c1cccc(Nc2ccc(OCc3ccccn3)cc2C2CC2)c1", "note": "[Compound 76, N-(2-(cyclohexyl)ethyl)-3-((2-cyclopropyl-4-(pyridin-2-ylmethoxy)phenyl)amino)benzamide]", "EC50": 14},
      {"smiles": "CCCC(C)NC(=O)c1cccc(Nc2ccc(OCc3ccccn3)cc2C)c1", "note": "(centres unmarked) [Compound 77, N-(1-methylbutyl)-3-((2-methyl-4-(pyridin-2-ylmethoxy)phenyl)amino)benzamide]", "EC50": 124},
      {"smiles": "CCCC(C)NC(=O)c1cccc(Nc2ccc(OCc3ccccn3)cc2CC)c1", "note": "(centres unmarked) [Compound 78, N-(1-methylbutyl)-3-((2-ethyl-4-(pyridin-2-ylmethoxy)phenyl)amino)benzamide]", "EC50": 58},
      {"smiles": "O=S(=O)(NCCC1CCCCC1)c1cccc(Nc2ccc(OCc3ccccn3)cc2C2CC2)c1", "note": "[Compound 79, N-(2-(cyclohexyl)ethyl)-3-((2-cyclopropyl-4-(pyridin-2-ylmethoxy)phenyl)amino)benzenesulfonamide]", "EC50": 33},
      {"smiles": "O=C(CCC1CCCCC1)Nc1cccc(Nc2ccc(OCc3ccccn3)cc2C2CC2)c1", "note": "[Compound 80, (3-(cyclohexyl)propanamide), N-[3-([2-cyclopropyl-4-(pyridin-2-ylmethoxy)phenyl]amino)phenyl]-]", "EC50": 21},
      {"smiles": "c1ccc(COc2ccc(Nc3cccc(OCCCC4CCCCC4)c3)c(C3CC3)c2)nc1", "note": "[Compound 83, 3-(3-cyclohexylpropoxy)-N-(2-cyclopropyl-4-(pyridin-2-ylmethoxy)phenyl)aniline]", "EC50": 9},
      {"smiles": "NC(=O)c1cccc(Nc2ccc(OCc3ccccn3)cc2C2CC2)c1", "note": "[Compound 84, 3-((2-cyclopropyl-4-(pyridin-2-ylmethoxy)phenyl)amino)benzamide]", "EC50": 637},
      {"smiles": "O=C(NCCC1CCCCC1)c1cccc(Nc2ccc(OCc3cccnc3)cc2C2CC2)c1", "note": "[Compound 85, N-(2-cyclohexylethyl)-3-((2-cyclopropyl-4-(pyridin-3-ylmethoxy)phenyl)amino)benzamide]", "EC50": 8},
      {"smiles": "O=C(NCCC1CCCCC1)c1cccc(Nc2ccc(OCc3ccccn3)cc2C2CC2)n1", "note": "[Compound 86, N-(2-cyclohexylethyl)-6-((2-cyclopropyl-4-(pyridin-2-ylmethoxy)phenyl)amino)picolinamide]", "EC50": 567},
      {"smiles": "O=C(NCCC1CCCCC1)c1cncc(Nc2ccc(OCc3ccccn3)cc2C2CC2)c1", "note": "[Compound 88, N-(2-cyclohexylethyl)-5-((2-cyclopropyl-4-(pyridin-2-ylmethoxy)phenyl)amino)nicotinamide]", "EC50": 461},
      {"smiles": "O=C(NCCC1CCCC1)c1cccc(Nc2ccc(OCc3ccncc3)cc2C2CC2)c1", "note": "[Compound 89, N-(2-cyclopentylethyl)-3-((2-cyclopropyl-4-(pyridin-4-ylmethoxy)phenyl)amino)benzamide]", "EC50": 140},
      {"smiles": "O=C(NCCC1CCCCC1)c1ccnc(Nc2ccc(OCc3ccccn3)cc2C2CC2)c1", "note": "[Compound 90, N-(2-cyclohexylethyl)-2-((2-cyclopropyl-4-(pyridin-2-ylmethoxy)phenyl)amino)isonicotinamide]", "EC50": 92},
      {"smiles": "CC(C)(C)c1cc(OCc2ccccc2)ccc1Nc1cccc(NC(=O)CCC2CCCCC2)c1", "note": "[Compound 91, N-(3-{[4-(benzyloxy)-2-tert-butylphenyl]amino}phenyl)-3-cyclohexylpropanamide]", "EC50": 2},
      {"smiles": "O=C(CCC1CCCCC1)Nc1cccc(Nc2ccc(OCc3ccccc3)cc2C2=CCCC2)c1", "note": "[Compound 92, N-(3-{[4-(benzyloxy)-2-(cyclopent-1-en-1-yl)phenyl]amino}phenyl)-3-cyclohexylpropanamide]", "EC50": 4},
      {"smiles": "O=C(CCC1CCCCC1)Nc1cccc(Nc2ccc(OCc3ccccc3)cc2C2CCCC2)c1", "note": "[Compound 93, N-(3-{[4-(benzyloxy)-2-cyclopentylphenyl]amino}phenyl)-3-cyclohexylpropanamide]", "EC50": 4},
      {"smiles": "CSc1cc(OCc2ccccc2)ccc1Nc1cccc(NC(=O)CCC2CCCCC2)c1", "note": "[Compound 94, N-(3-{[4-(benzyloxy)-2-(methylsulfanyl)phenyl]amino}phenyl)-3-cyclohexylpropanamide]", "EC50": 7},
      {"smiles": "c1ccc(COc2ccc(Nc3cccc(NCCCC4CCCCC4)c3)c(C3CC3)c2)cc1", "note": "[Compound 95, N1-[4-(benzyloxy)-2-cyclopropylphenyl]-N3-(3-cyclohexylpropyl)benzene-1,3-diamine]", "EC50": 8},
      {"smiles": "O=C(NCCC1CCCCC1)Nc1cccc(Nc2ccc(OCc3ccccn3)cc2C2CC2)c1", "note": "[Compound 96, 1-(2-cyclohexylethyl)-3-[3-({2-cyclopropyl-4-[(pyridin-2-yl)methoxy]phenyl}amino)phenyl]urea]", "EC50": 10},
      {"smiles": "OC(CCCC1CCCCC1)c1cccc(Nc2ccc(OCc3ccccc3)cc2C2CC2)c1", "note": "(centres unmarked) [Compound 97, 1-(3-{[4-(benzyloxy)-2-cyclopropylphenyl]amino}phenyl)-4-cyclohexylbutan-1-ol]", "EC50": 10},
      {"smiles": "O=C(CCC1CCCCC1)Nc1cccc(Nc2ccc(OCc3ccc(F)cc3)cc2C(F)(F)F)c1", "note": "[Compound 99, 3-cyclohexyl-N-[3-({4-[(4-fluorophenyl)methoxy]-2-(trifluoromethyl)phenyl}amino)phenyl]propanamide]", "EC50": 13},
      {"smiles": "c1ccc(COc2ccc(Nc3cccc(-n4cc(CC5CCCCC5)nn4)c3)c(C3CC3)c2)nc1", "note": "[Compound 100, N-{3-[4-(cyclohexylmethyl)-1H-1,2,3-triazol-1-yl]phenyl}-2-cyclopropyl-4-[(pyridin-2-yl)methoxy]aniline]", "EC50": 16},
      {"smiles": "CC(C)(C)c1cc(OCc2ccccc2)ccc1Nc1ccccc1C(=O)NCCC1CCCCC1", "note": "[Compound 101, 2-{[4-(benzyloxy)-2-tert-butylphenyl]amino}-N-(2-cyclohexylethyl)benzamide]", "EC50": 21},
      {"smiles": "Cc1c(NC(=O)C2(C#N)CC2)cccc1Nc1ccc(OCc2ccccn2)cc1C1CC1", "note": "[Compound 102, 1-cyano-N-[3-({2-cyclopropyl-4-[(pyridin-2-yl)methoxy]phenyl}amino)-2-methylphenyl]cyclopropane-1-carboxamide]", "EC50": 22},
      {"smiles": "O=C(NCCCC1CCCCC1)c1ccccc1Nc1ccc(OCc2ccccc2)cc1C1CC1", "note": "[Compound 103, 2-{[4-(benzyloxy)-2-cyclopropylphenyl]amino}-N-(3-cyclohexylpropyl)benzamide]", "EC50": 24},
      {"smiles": "O=C(NCCC1CCCC1)c1cccc(Nc2ccc(OCc3ccccc3)cc2C(F)(F)F)c1", "note": "[Compound 104, 3-{[4-(benzyloxy)-2-(trifluoromethyl)phenyl]amino}-N-(2-cyclopentylethyl)benzamide]", "EC50": 29},
      {"smiles": "Cc1c(Nc2ccc(OCc3ccccc3)cc2C2CC2)cccc1OCCCC1CCCCC1", "note": "[Compound 105, 4-(benzyloxy)-N-[3-(3-cyclohexylpropoxy)-2-methylphenyl]-2-cyclopropylaniline]", "EC50": 31}
    ]}
  ]
}
